In patent US20200392158A1, “INHIBITORS OF LEUCINE RICH REPEAT KINASE 2” (GLAXOSMITHKLINE INTELLECTUAL PROPERTY DEVELOPMENT LIMITED, priority 2017, published 2020):

Molecular target: T1, LRRK2 kinase in SH-SY5Y cells over-expressing recombinant full length LRRK2 (Homo sapiens, UniProt Q5S007)
T1 construct: A BacMam virus expressing full length recombinant LRRK2 was purchased from Invitrogen; host or cells: SH-SY5Y human neuroblastoma cells transduced with BacMam LRRK2 virus
Test: Recombinant cellular LRRK2 AlphaScreen assay (LRRK2 Ser935 phosphorylation)
Type: cell-based
Settings: 60 min
Text: b. Recombinant Cellular LRRK2 AlphaScreen Assay
To determine the activity of compounds against LRRK2 kinase in cells, the observed LRRK2 kinase-dependent modulation of LRRK2 Ser 935 phosphorylation (Dzamko et al., 2010, Biochem. J. 430: 405-413) was utilized to develop a quantitative 384 well plate-based immunoassay of LRRK2 Ser935 phosphorylation in the human neuroblastoma cell line SH-SY5Y, engineered to over-express recombinant full length LRRK2 protein.
A BacMam virus expressing full length recombinant LRRK2 was purchased from Invitrogen and amplified by inoculation of SF-9 cells at MOI 0.3 for 4-5 days in Sf-900 III SFM medium supplemented with 3% fetal bovine serum. Infected cell cultures were then centrifuged at 2000 g for 20 minutes, viral supernatant titer determined by anti-gp64 plaque assay and stored at 4° C.
Affinity-purified anti-phospho LRRK2 Ser935 sheep polyclonal antibody (Dzamko et al., 2010, Biochem. J. 430: 405-413) was biotinylated by standard methods (PerkinElmer). Anti-LRRK2 rabbit polyclonal antibody was purchased from Novus Biologicals. AlphaScreen Protein A IgG Kit (including acceptor and donor beads) was purchased from Perkin Elmer.
SH-SY5Y cells were grown in DMEM/F12 medium with 10% dialysed fetal bovine serum and harvested by treatment with 0.5% trypsin-EDTA for 5 minutes at 37° C. followed by centrifugation at 1000 rpm for 4 minutes. The cell pellet was resuspended in Opti-MEM reduced serum media (Invitrogen) at 200,000 cells/ml and mixed with the BacMam LRRK2 virus at M01=50. 50 μl cell solutions were then dispensed to each well of a 384-well plate and incubated at 37° C., 5% CO2 for 24 hours.
Compounds were prepared at 10× final assay concentration as 11 point 1 in 4 serial I dilutions in Opti-MEM reduced serum medium (Invitrogen 31985070) containing 1% DMSO. On the day of assay, 5.5 μl of the compound solutions were transferred from the compound plate to the cell assay plate to achieve a top final assay concentration of 10 uM. DMSO (0.1% final assay concentration) was added to column 6 and 2-(benzyloxy)-5-methyl-4-(1-methyl-1H-pyrazol-4-yl)-N-(pyridin-3-yl)benzamide (2 μM final assay concentration) was added to column 18 to serve as 0% and 100% inhibition controls, respectively.
Cells were incubated at 37° C., 5% CO2 for 60 minutes. The medium was then removed and cells lysed by addition of 20 μl of cell lysis buffer (Cell Signaling Technology) and incubation at 4° C. for 20 minutes. 10 μl of antibody/acceptor bead mix [(1/1000 biotinylated-pS935 LRRK2 antibody, 1/1000 total-LRRK2 antibody, 1/100 Acceptor beads in AlphaScreen detection buffer (25 mM Hepes (pH 7.4), 0.5% Triton X-100, 1 mg/ml Dextran 500 and 0.1% BSA)] was then added to each well and plates incubated for 2 hours at ambient temperature in the dark. 10 μl of donor beads solution (1/33.3 donor beads in AlphaScreen detection buffer) was then added to each well. Following incubation for a further 2 hours at ambient temperature in the dark, plates were read on an EnVision™ plate reader at emission 520-620 nm with excitation 680 nm. Dose response curve data was based on a sigmoidal dose-response model.

T1 sequence (Q5S007 whole entry): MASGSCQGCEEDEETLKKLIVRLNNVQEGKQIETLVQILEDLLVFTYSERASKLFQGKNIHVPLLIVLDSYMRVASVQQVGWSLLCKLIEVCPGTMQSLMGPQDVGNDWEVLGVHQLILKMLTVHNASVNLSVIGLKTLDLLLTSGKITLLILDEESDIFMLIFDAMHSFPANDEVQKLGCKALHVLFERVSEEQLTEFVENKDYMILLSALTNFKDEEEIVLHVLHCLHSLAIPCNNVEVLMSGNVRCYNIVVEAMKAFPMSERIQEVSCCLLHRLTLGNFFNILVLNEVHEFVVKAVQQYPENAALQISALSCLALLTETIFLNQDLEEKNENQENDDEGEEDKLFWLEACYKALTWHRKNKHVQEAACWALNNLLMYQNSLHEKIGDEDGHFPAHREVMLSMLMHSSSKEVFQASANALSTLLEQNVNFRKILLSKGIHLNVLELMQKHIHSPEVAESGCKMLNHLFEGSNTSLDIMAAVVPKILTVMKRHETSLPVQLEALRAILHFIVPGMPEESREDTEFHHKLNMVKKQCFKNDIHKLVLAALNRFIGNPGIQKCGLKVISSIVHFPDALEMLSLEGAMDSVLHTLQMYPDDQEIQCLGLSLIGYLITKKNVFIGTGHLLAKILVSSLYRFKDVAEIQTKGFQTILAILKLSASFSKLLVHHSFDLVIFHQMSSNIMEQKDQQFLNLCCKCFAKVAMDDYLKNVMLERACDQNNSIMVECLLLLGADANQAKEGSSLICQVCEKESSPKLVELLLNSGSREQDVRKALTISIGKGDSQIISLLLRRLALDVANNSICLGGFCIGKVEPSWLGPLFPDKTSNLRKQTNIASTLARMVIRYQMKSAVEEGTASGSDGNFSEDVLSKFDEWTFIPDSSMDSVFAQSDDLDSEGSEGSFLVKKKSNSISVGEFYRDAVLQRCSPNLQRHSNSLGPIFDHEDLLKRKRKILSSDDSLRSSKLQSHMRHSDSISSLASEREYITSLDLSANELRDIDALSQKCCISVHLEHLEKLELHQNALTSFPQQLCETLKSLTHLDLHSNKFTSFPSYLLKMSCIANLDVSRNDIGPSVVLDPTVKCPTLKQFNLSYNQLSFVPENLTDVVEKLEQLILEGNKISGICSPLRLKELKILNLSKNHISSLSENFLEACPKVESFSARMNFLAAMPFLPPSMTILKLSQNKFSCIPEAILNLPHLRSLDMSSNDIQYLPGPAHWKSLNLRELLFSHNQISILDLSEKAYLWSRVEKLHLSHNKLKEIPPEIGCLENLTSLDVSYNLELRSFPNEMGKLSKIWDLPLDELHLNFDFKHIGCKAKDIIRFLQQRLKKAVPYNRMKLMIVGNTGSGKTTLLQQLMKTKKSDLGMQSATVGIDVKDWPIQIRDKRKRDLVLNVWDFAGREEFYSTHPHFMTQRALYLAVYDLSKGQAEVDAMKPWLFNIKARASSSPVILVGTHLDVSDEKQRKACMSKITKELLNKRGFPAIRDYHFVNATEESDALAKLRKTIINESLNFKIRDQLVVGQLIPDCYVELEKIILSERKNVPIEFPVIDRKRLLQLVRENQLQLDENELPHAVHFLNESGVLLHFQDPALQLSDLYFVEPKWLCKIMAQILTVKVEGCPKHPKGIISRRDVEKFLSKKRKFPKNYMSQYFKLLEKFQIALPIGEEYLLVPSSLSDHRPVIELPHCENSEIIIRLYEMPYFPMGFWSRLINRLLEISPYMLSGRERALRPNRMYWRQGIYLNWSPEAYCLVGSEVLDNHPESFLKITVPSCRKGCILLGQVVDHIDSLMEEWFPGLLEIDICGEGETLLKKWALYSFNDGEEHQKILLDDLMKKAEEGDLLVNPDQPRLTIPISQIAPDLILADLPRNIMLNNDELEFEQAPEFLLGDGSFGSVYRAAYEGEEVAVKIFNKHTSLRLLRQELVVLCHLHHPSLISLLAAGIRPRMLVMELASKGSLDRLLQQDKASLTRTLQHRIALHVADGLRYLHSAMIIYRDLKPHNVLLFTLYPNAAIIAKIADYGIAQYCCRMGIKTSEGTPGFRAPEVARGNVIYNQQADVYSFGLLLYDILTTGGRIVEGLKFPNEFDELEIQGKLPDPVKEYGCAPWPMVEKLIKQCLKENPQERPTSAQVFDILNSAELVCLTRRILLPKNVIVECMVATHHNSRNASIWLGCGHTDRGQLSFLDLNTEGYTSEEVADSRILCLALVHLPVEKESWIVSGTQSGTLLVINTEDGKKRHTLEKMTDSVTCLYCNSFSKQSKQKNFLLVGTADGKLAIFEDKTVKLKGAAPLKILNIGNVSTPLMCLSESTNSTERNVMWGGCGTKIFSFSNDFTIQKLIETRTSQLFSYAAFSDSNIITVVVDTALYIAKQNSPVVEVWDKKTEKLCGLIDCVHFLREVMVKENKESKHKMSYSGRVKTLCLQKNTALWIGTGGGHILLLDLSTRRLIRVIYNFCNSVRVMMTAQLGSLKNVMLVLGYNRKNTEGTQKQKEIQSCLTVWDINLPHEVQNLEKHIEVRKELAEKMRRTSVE

Row | Compound | IC50 [nM]
1 | COC1CNc2nc(ncc2Cl)Nc2c(nn(C3CCOCC3)c2C)OC1 (stereo not shown) [E2, 14-Chloro-10-methoxy-4-methyl-5-(oxan-4-yl)-8-oxa-2,5,6,12,16,17-hexaazatricyclo [11.3.1.0^3,7]heptadeca-1(16),3,6,13(17),14-pentaene] | ≤ 100
2 | Cc1c2c(nn1C1CCCOC1)OCCCNc1nc(ncc1Cl)N2 (stereo not shown) [E8, 14-Chloro-4-methyl-5-(oxan-3-yl)-8-oxa-2,5,6,12,16,17-hexaazatricyclo[11.3.1.0^3,7]heptadeca-1(16),3,6,13(17),14-pentaene] | ≤ 100
3 | N#Cc1c2c(nn1C1CCOCC1)OCCCNc1nc(ncc1Cl)N2 [E14, 14-Chloro-5-(oxan-4-yl)-8-oxa-2,5,6,12,16,17-hexaazatricyclo[11.3.1.0^3,7]heptadeca-1(16),3,6,13(17),14-pentaene-4-carbonitrile] | ≤ 100
4 | N#Cc1cnc2nc1NCCCOc1nn(C3CCOCC3)c(Cl)c1N2 [E15, 4-Chloro-5-(oxan-4-yl)-8-oxa-2,5,6,12,16,17-hexaazatricyclo[11.3.1.0^3,7]heptadeca-1(16),3,6,13(17),14-pentaene-14-carbonitrile] | ≤ 100
5 | Cc1c2c(nn1C1CCOCC1)OCC(F)CNc1nc(ncc1Cl)N2 (stereo not shown) [E16, 14-Chloro-10-fluoro-4-methyl-5-(oxan-4-yl)-8-oxa-2,5,6,12,16,17-hexaazatricyclo [11.3.1.0^3,7]heptadeca-1(16),3,6,13(17),14-pentaene] | ≤ 100
6 | Cc1c2c(nn1C1CCOCC1)OCCCNc1nc(ncc1C#N)N2 [E69, 4-Methyl-5-(oxan-4-yl)-8-oxa-2,5,6,12,16,17-hexaazatricyclo[11.3.1.0^3,7]heptadeca-1(16),3,6,13(17),14-pentaene-14-carbonitrile] | ≤ 100
7 | Cc1c2c(nn1C)OCCCNc1nc(ncc1Cl)N2 [E108, 14-Chloro-4,5-dimethyl-8-oxa-2,5,6,12,16,17-hexaazatricyclo [11.3.1.0^3,7]heptadeca-1(16),3,6,13(17),14-pentaene] | ≤ 100
8 | Cc1c2c(nn1C1CCOCC1)OCCCNc1nc(ncc1C(F)(F)F)N2 [E111, 4-Methyl-5-(oxan-4-yl)-14-(trifluoromethyl)-8-oxa-2,5,6,12,16, 17-hexaazatricyclo[11.3.1.0^3,7]heptadeca-1(16),3,6,13(17),14-pentaene] | ≤ 100
9 | FC(F)c1c2c(nn1C1CCOCC1)OCCCNc1nc(ncc1C(F)(F)F)N2 [E118, 4-(Difluoromethyl)-5-(oxan-4-yl)-14-(trifluoromethyl)-8-oxa-2,5,6,12,16,17-hexaazatricyclo[11.3.1.0^3,7]heptadeca-1(16),3,6, 13(17),14-pentaene] | ≤ 100
10 | COC1CNc2nc(ncc2C(F)(F)F)Nc2c(nn(C3CCOCC3)c2C)OC1 (stereo not shown) [E119, 10-Methoxy-4-methyl-5-(oxan-4-yl)-14-(trifluoromethyl)-8-oxa-2,5,6,12,16,17-hexaazatricyclo[11.3.1.0^3,7]heptadeca-1(16),3,6, 13(17),14-pentaene] | ≤ 100
11 | Cc1c2c(nn1C1CCOC1)OCCCNc1nc(ncc1Cl)N2 (stereo not shown) [E122, 14-Chloro-4-methyl-5-(oxolan-3-yl)-8-oxa-2,5,6,12,16,17-hexa azatricyclo[11.3.1.0^3,7]heptadeca-1(16),3,6,13(17),14-pentaene] | ≤ 100
12 | Cc1c2c(nn1C1CCOCC1)OCCCNc1cc(ncc1C(F)(F)F)N2 [E125, 4-Methyl-5-(oxan-4-yl)-14-(trifluoromethyl)-8-oxa-2,5,6,12,16-pentaazatricyclo[11.3.1.0^3,7]heptadeca-1(16),3,6,13(17),14-pentaene] | ≤ 100
13 | Cc1c2c(nn1C1CCOC1)OCCCNc1nc(ncc1C(F)(F)F)N2 (stereo not shown) [E126, 4-Methyl-5-(oxolan-3-yl)-14-(trifluoromethyl)-8-oxa-2,5,6,12,16, 17-hexaazatricyclo[11.3.1.0^3,7]heptadeca-1(16),3,6,13(17),14-pentaene] | ≤ 100
14 | Cc1c2c(nn1C1CCCOC1)OCCCNc1nc(ncc1C(F)(F)F)N2 (stereo not shown) [E131, 4-Methyl-5-(oxan-3-yl)-14-(trifluoromethyl)-8-oxa-2,5,6,12,16, 17-hexaazatricyclo[11.3.1.0^3,7]heptadeca-1(16),3,6,13(17),14-pentaene] | ≤ 100
15 | Cc1c2c(nn1C1CCOCC1)OCC(C)CNc1nc(ncc1Cl)N2 (stereo not shown) [E135, 14-Chloro-4,10-dimethyl-5-(oxan-4-yl)-8-oxa-2,5,6,12,16,17-hexaazatricyclo[11.3.1.0^3,7]heptadeca-1(16),3,6,13(17),14-pentaene] | ≤ 100
16 | Cc1c2c(nn1C1CCOCC1C)OCCCNc1nc(ncc1Cl)N2 (stereo not shown) [E139, 14-Chloro-4-methyl-5-(3-methyloxan-4-yl)-8-oxa-2,5,6,12,16,17-hexaazatricyclo[11.3.1.0^3,7]heptadeca-1(16),3,6,13(17),14-pentaene] | ≤ 100
17 | Cc1c2c(nn1C1CCC(F)(F)CC1)OCCCNc1nc(ncc1Cl)N2 [E142, 14-Chloro-5-(4,4-difluorocyclohexyl)-4-methyl-8-oxa-2,5,6,12, 16,17-hexaazatricyclo[11.3.1.0^3,7]heptadeca-1(16),3,6,13(17),14-pentaene] | ≤ 100

Continued, values first:

Row | IC50 [nM] | Compound
18 | ≤ 100 | COC1CNc2nc(ncc2Cl)Nc2c(nn(C3CCOCC3)c2Cl)OC1 (single isomer, unassigned) [E341, 4,14-Dichloro-10-methoxy-5-(oxan-4-yl)-8-oxa-2,5,6,12,16,17-hexaazatricyclo[11.3.1.0^3,7]heptadeca-1(16),3,6,13(17),14-pentaene]
19 | ≤ 100 | Cc1c2c(nn1C1CCOCC1)OCCC(C)Nc1cc(ncc1Cl)N2 (single isomer, unassigned) [E345, 14-Chloro-4,11-dimethyl-5-(oxan-4-yl)-8-oxa-2,5,6,12,16-pentaazatricyclo[11.3.1.0^3,7]heptadeca-1(16),3,6,13 (17),14-pentaene]
20 | ≤ 100 | Cc1c2c(nn1C1CCCOC1)OCCC(C)Nc1cc(ncc1Cl)N2 (single isomer, unassigned) [E346, 14-Chloro-4,11-dimethyl-5-(oxan-3-yl)-8-oxa-2,5,6,12,16-pentaazatricyclo[11.3.1.0^3,7]heptadeca-1(16),3,6,13 (17),14-pentaene]
21 | ≤ 100 | Cc1c2c(nn1C1COCC(F)C1)OCCCNc1nc(ncc1Cl)N2 (single isomer, unassigned) [E371, 14-Chloro-5[5-fluorooxan-3-yl]-4-methyl-8-oxa-2,5,6,12,16,17-hexaazatricyclo[11.3.1.0^3,7]heptadeca-1(16),3,6, 13(17),14-pentaene]
22 | ≤ 100 | Cc1c2c(nn1C1CCC(N3CCOCC3)CC1)OCCCNc1nc(ncc1Cl)N2 (single isomer, unassigned) [E380, 14-Chloro-4-methyl-5-[4-(morpholin-4-yl)cyclohexyl]-8-oxa-2,5,6,12,16,17-hexaazatricyclo [11.3.1.0^3,7]heptadeca-1(16),3,6,13(17),14-pentaene]
23 | ≤ 100 | Cc1c2c(nn1C1CCN(C3CCOC3)CC1)OCC[C@@H](C)Nc1nc(ncc1Cl)N2 (single isomer, unassigned) [E383]
24 | ≤ 100 | Cc1c2c(nn1C1CCOCC1(F)F)OCC[C@@H](C)Nc1nc(ncc1Cl)N2 (single isomer, unassigned) [E392]
25 | ≤ 100 | Cc1c2c(nn1C1CN(C3COC3)CCC1(F)F)OCCCNc1nc(ncc1Cl)N2 (single isomer, unassigned) [E408, 14-Chloro-5-[4,4-difluoro-1-(oxetan-3-yl)piperidin-3-yl]-4-methyl-8-oxa-2,5,6,12,16,17-hexaazatricyclo[11.3.1.0^3,7]heptadeca-1(16),3,6,13(17),14-pentaene]
26 | ≤ 100 | Cc1c2c(nn1C1CCOCC1C)OCCCNc1nc(ncc1Cl)N2 (single isomer, unassigned) [E412]
27 | ≤ 100 | C[C@@H]1CCOc2nn(C3CN(C4COC4)CCC3(F)F)c(Cl)c2Nc2ncc(Cl)c(n2)N1 (single isomer, unassigned) [E442]
28 | ≤ 100 | Cc1c2c(nn1C1CCOCC1C(F)(F)F)OCC[C@@H](C)Nc1nc(ncc1Cl)N2 (single isomer, unassigned) [E448]
